# Measurements: patent US8501680B2, “Antagonists against interaction of PF4 and RANTES” (RWTH Aachen, priority 2005, dated 2013)
# Tests used:
# [1] = system: Mono Mac 6 cells on IL-1 activated HUVEC; arrest potentiated by RANTES and PF4; assay: Inhibition of monocyte arrest on activated endothelium under flow; type: cell-based, human; settings: 6 μM peptide, 60 nM RANTES and PF4, 1.5 dyn/cm2, adherent cells after 4 minutes
# Protocol: Endothelial cells from the human umbilical cord (HUVEC, human umbilical vein endothelial cells, PromoCell, Heidelberg) were cultured in endothelial cell growth medium (PromoCell, Heidelberg) and used after two to four passages.
# Monocytic Mono Mac 6 cells (MM6, DSMZ) were cultured in RPMI 1640 medium (PAA Laboratories, Pasching, Austria) with the addition of 10% fetal calf serum, 2 mM L-glutamine (Biowhittaker), 1 mM sodium pyruvate, 50 μg/mL gentamycin and 9 μg/mL insulin (MM6 medium). The cells were sown with a density of 2×10^5/mL in 2 mL MM6 medium in 24-well plates and cultured at 37° C. in a humid atmosphere with 5% CO2 for 3 to 4 days before being used for experiments.
# The interaction of monocytic Mono Mac 6 cells on activated endothelial cells was investigated.
# Petri dishes with confluent HUVEC cells layers activated with IL-113 (Interleukin 1(3, Peprotech, 10 ng/mL, 12 hours) were placed in a flow chamber. Mono Mac 6 cells (0.5×10^6 cells/mL) were resuspended in balanced Hank solution (HBSS with 10 mM HEPES (Gibco BRL), pH 7.3, 0.5% bovine serum albumin (Serva)) and kept on ice. Five minutes before the experiment, Ca^2+ and Mg^2+ were added to the monocytic MM6 cells to yield a final concentration of 1 mM and 60 nM of the chemokines RANTES (Peprotech, Rocky Hill, N.J., USA) and PF4 (ChromaTec, Greifswald), respectively, and 6 μM of the polypeptides of the sequence SEQ ID NO: 2 according to formula (2), the sequence SEQ ID NO: 3 according to formula (3) or a control peptide of the sequence SEQ ID NO: 14 according to formula (14) and then heated up to 37° C. Cells pretreated in this way were then perfused over endothelial cells at 1.5 dyn/cm^2 on a microscope of model IX 50 from Olympus. The number of monocytes that were adherent due to the interaction with the endothelial cells was determined after 4 minutes in various fields by image analysis of photographs by a video camera (3CCD, JVC) and recorder. The data were analyzed as the mean (n=5)±standard deviation (p<0.02) in comparison with a control.
# [2] = biological target: T1, interaction of RANTES and PF4 (Homo sapiens, UniProt P02776+P13501); assay: Plasmon resonance (Biacore) study of inhibition of RANTES binding to immobilized biotinylated PF4
# T1 construct: made in house; host or cells: chemical synthesis (t-Boc solid phase peptide synthesis and native chemical ligation); no expression host
# T1 sequence (P13501 24-91): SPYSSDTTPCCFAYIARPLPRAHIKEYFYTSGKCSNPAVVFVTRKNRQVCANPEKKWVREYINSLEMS
# T1 sequence (P02776 32-101): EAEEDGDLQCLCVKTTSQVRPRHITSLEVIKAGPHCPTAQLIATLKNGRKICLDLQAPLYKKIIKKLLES
# Protocol: The plasmon resonance studies were performed using HBS-EP buffer (10 mM HEPES, 150 mM NaCl, 0.005% Tween 20, pH 7.4).
# Two flow cells of a Cl chip (Biacore AB, Uppsala, Sweden) were activated by injection of 50 μL ethyl(dimethylaminopropyl)carbodiimide/N-hydroxysuccinimide (0.2M/0.05M, Pierce) and then 20 μL streptavidine (0.2 mg/mL, Sigma-Aldrich) was perfused over the activated surface. The surface was next inactivated by four successive injections of 20 μL […] (1M, pH 8, Sigma-Aldrich).
# Biotinylated human PF4 (bPF4) at the N-terminus was chemically synthesized by means of t-Boc-based solid phase peptide synthesis and native chemical ligation of PF4 (Dawson, P. E., Kent, S. B. (2000), Annu. Rev. Biochem. 69:923-960, Hackeng, T. M., Griffin, J. H., Dawson, P. E. (1999), Proc. Natl. Acad. Sci. USA, vol. 96, pp. 10068-10073). The bPF4 was immobilized on the dextran surface of a Cl sensor chip by injecting 200 μg/mL bPF4 into HBS-EP through one of the flow chambers and recorded 240 resonance units (RU). The second flow chamber was not treated with bPF4 and served as the reference.
# Binding of RANTES (0.5 μM, recombinant human RANTES, Peprotech, Rocky Hill, N.J., USA) or RANTES (0.5 μM) that had been preincubated with various concentrations (0 μM, 10 μM and 100 μM) of the polypeptide of the sequence SEQ ID NO: 3 according to formula (3) in HBS-EP buffer overnight at room temperature to bPF4 was determined by injection of 15 μL of the respective peptide/RANTES mixture and observation of the binding for 180 seconds. The coupling was determined and the measurements were performed in a Biacore 2000 apparatus (Biacore AB) at a flow rate of 5 μL/min. Sensor grams of the RANTES binding were corrected using the BIAevaluation 3.0 software (Biacore AB) to correct for nonspecific background signals and equilibrium resonance units (RU) were determined for each injection.
# In another experiment under the same conditions as those described for example 1, the binding of RANTES (0.5 μM) or RANTES (0.5 μM) that had been preincubated with 0 μM, 10 μM, 50 μM and 100 μM of the polypeptide of the sequence SEQ ID NO: 3 according to formula (3), SEQ ID NO: 2 according to formula (2) or a control peptide of the sequence SEQ ID NO: 14 according to formula (14) as given below: […]
# [3] = system: atherosclerotic lesions in ApoE mice; assay: Mouse model of atherosclerosis (ApoE mice on high-fat diet); type: in vivo; settings: 50 μg intraperitoneal three times a week for 12 weeks
# Protocol: The model for artherosclerosis [sic; atherosclerosis] was 9- to 12-week-old female ApoE litter-mate mice (The Jackson Lab, Bar Harbor, Me., USA). The mice were fed a high-fat diet (21% fat, Altromin® C1061) for 12 weeks. During this period of time, two groups of mice received intraperitoneal injections of 50 μg of the polypeptide of the sequence SEQ ID NO: 15 according to formula (15), administered three times a week, as indicated below:
# (n=7 mice) in saline solution. An untreated group of mice (n=12) was used as additional controls.
# The mice were sacrificed for histological examination. […] Blood samples were taken at the beginning and end of the experimental nutrition period. The white blood cell count was determined by hemocytometry and the sera were collected, the cholesterol using the Infinity cholesterol kits (Thermo Electron, Melbourne, Australia).
# The extent of the atherosclerosis was determined at the aortic route and on thoracoabdominal aorta by staining lipid deposits using Oil Red O staining (N. R. Veillard, B. Kwak, G. Pelli, F. Mulhaupt, R. W. James, A. E. Proudfoot, F. Mach, Antagonism of RANTES receptors reduces atherosclerotic plaque formation in mice. Circ. Res. 2004; 94:253-61) and quantified by means of computerized image analysis (Diskus software, Hilgers, Aachen). Areas of atherosclerotic lesions were determined in 5 μm transverse sections through the heart and aortic root. The determination was performed for each aortic root on the basis of lipid stained areas of six sections a distance of 50 μm apart. The areas of atherosclerotic lesions were divided by the total surface area of the valve of each section. The thoracoabdominal aorta was opened along the ventral midline and the areas of the lesions were stained in an en-face preparation using Oil Red-O staining. The proportional amount of lipid deposit was calculated by dividing the stained area by the total thoracoabdominal surface area.
sequence,measurement,setting,value
"KEYFYTSGK [SEQ ID NO: 14, control peptide, reference compound]",inhibition of potentiation of monocyte arrest due to heterophilic interaction of RANTES and PF4 (in words),[1],no significant inhibition
same,inhibition of the interaction of RANTES and PF4 (in words),"[2]; RANTES 0.5 μM preincubated with 100 μM peptide, Example 2",did not exhibit any detectable inhibition
CKEYFYTSGKCSNPAVVFVTRC [SEQ ID NO: 2],inhibition of potentiation of monocyte arrest due to heterophilic interaction of RANTES and PF4 (in words),[1],weaker
CKEYFYTSSKSSNLAVVFVTRC [SEQ ID NO: 15],area of the aortic root showing plaque in relation to the total valve surface area,[3],significantly reduced
same,macrophage content in the lesions,[3],significantly reduced
same,development of atherosclerotic lesions in comparison with mice that received the control peptide,[3]; Oil Red O staining,significant reduction
CKEYFYTSGKSSNPGIVFITRC [SEQ ID NO: 3],inhibition of potentiation of monocyte arrest due to heterophilic interaction of RANTES and PF4,[1],up to 80%
same,reduction of binding of RANTES to immobilized PF4,"[2]; RANTES 0.5 μM preincubated overnight with peptide at 100 μM, Example 1",up to 35%
same,inhibition of the interaction of RANTES and PF4 (in words),"[2]; RANTES 0.5 μM preincubated with 0, 10 and 100 μM peptide, Example 1",concentration-dependent inhibition
same,inhibition of the interaction of RANTES and PF4 (comparison in words),"[2]; RANTES 0.5 μM preincubated with 10 μM, 50 μM and 100 μM peptide, Example 2",definitely more effective than the polypeptide of the sequence SEQ ID NO: 2
